Tested on: Escherichia coli strain ATCC25922
Test: standard microdilution assay to determine minimum inhibitory concentrations (MICs)
Type: cell-based
Conditions: Escherichia coli strain ATCC25922, microdilution
In short: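 E. coli strain ATCC25922 tested per CLSI microdilution methodology (about 100 microliters per well) to find minimum inhibitory concentrations. Activity scored categorically at a 16 micrograms/ml threshold.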

SMILES | E. coli ATCC25922 MIC
N=C(N)NCCCNCc1ccc(-n2cc3cc(-c4ccc(S(=O)(=O)C[C@@H](O)CN5CCCCC5)cc4)[nH]c3nc2=O)cc1 [Compound 1171] | + (a “+” indicates that the compound has an MIC value of 16 micrograms/ml or less)
N=C(N)NCCCNCc1ccc(-n2cc3cc(-c4cc(CO)cc(OCC(F)CN)c4)[nH]c3nc2=O)cc1 (stereo not drawn) [Compound 2050a] | + (a “+” indicates that the compound has an MIC value of 16 micrograms/ml or less)
CNCc1ccc(-n2cc3cc(-c4ccc(S(=O)(=O)N(CCCN5CCc6ccccc65)C5CCNCC5)cc4)[nH]c3nc2=O)cc1 [Compound 1063] | − (a “−” indicates that the compound has an MIC value greater than 16 micrograms/ml)
NCCCNCc1ccc(-n2cc3cc(-c4ccc(S(=O)(=O)NC5CCCNC5)cc4)[nH]c3nc2=O)cc1 (stereo not drawn) [Compound 807] | + (a “+” indicates that the compound has an MIC value of 16 micrograms/ml or less)
N=C(N)NCCCNCc1ccc(-n2cc3cc(-c4ccc(S(=O)(=O)NC5CCN(CCF)CC5)cc4)[nH]c3nc2=O)cc1 [Compound 943] | + (a “+” indicates that the compound has an MIC value of 16 micrograms/ml or less)
N=C(N)NCCCNCc1ccc(-n2cc3cc(-c4cccc(CCCN)c4)[nH]c3nc2=O)cc1 [Compound 1446] | + (a “+” indicates that the compound has an MIC value of 16 micrograms/ml or less)
N=C(N)NCCCNC(=O)c1ccc(-n2cc3cc(CCNC4CNC4)[nH]c3nc2=O)cc1 [Compound 1408] | − (a “−” indicates that the compound has an MIC value greater than 16 micrograms/ml)
NC(=O)c1ccc(-n2cc3cc(-c4ccc(S(=O)(=O)N(Cc5cc(OC(F)(F)F)ccc5F)C5CCNCC5)cc4)[nH]c3nc2=O)cc1 [Compound 1115] | − (a “−” indicates that the compound has an MIC value greater than 16 micrograms/ml)
N=C(N)NCCCNCc1ccc(-n2cc3cc(-c4cc(CO)cc(CCCCN)c4)[nH]c3nc2=O)cc1 [Compound 2065a] | + (a “+” indicates that the compound has an MIC value of 16 micrograms/ml or less)
CC(CN)CN1CCC(c2cc3cn(-c4ccc(CNCCCNC(=N)N)cc4)c(=O)nc3[nH]2)C1 (mixture of isomers) [Compound 2016a] | + (a “+” indicates that the compound has an MIC value of 16 micrograms/ml or less)
N=C(N)NCCCNCc1ccc(-n2cc3cc(-c4ccc(S(=O)(=O)N(Cc5cc(OC(F)(F)F)ccc5F)C5CCOCC5)cc4)[nH]c3nc2=O)cc1 [Compound 879] | + (a “+” indicates that the compound has an MIC value of 16 micrograms/ml or less)
N=C(N)NCCCNCc1ccc(-n2cc3cc(-c4ccc(S(=O)(=O)NC5CCNCC5)cc4)[nH]c3nc2=O)cc1 [Compound 871] | + (a “+” indicates that the compound has an MIC value of 16 micrograms/ml or less)
N=C(N)NCCCNCc1ccc(-n2cc3cc(-c4ccc(S(=O)(=O)N(CCCc5cccnc5)C5CCNCC5)cc4)[nH]c3nc2=O)cc1 [Compound 801] | + (a “+” indicates that the compound has an MIC value of 16 micrograms/ml or less)
N=C(N)NCCCNCc1ccc(-n2cc3cc(-c4ccc(S(=O)(=O)N(CC5CC5(F)F)C5CCNCC5)cc4)[nH]c3nc2=O)cc1 (stereo not drawn) [Compound 857] | + (a “+” indicates that the compound has an MIC value of 16 micrograms/ml or less)
CN(CCc1ccccn1)C(=O)c1cc(-c2cc3cn(-c4ccc(CNCCCNC(=N)N)cc4)c(=O)nc3[nH]2)cc(N2CCNCC2)c1 [Compound 964] | − (a “−” indicates that the compound has an MIC value greater than 16 micrograms/ml)
Cc1cc(-n2cc3cc(-c4ccc(S(=O)(=O)NC5CCCNC5)cc4)[nH]c3nc2=O)ccc1CNCCCNC(=N)N (stereo not drawn) [Compound 1309] | + (a “+” indicates that the compound has an MIC value of 16 micrograms/ml or less)
N=C(N)NCCCCc1cc(OC(F)(F)F)cc(-c2cc3cn(-c4ccc(C(NCCCNC(=N)N)C(F)(F)F)cc4)c(=O)nc3[nH]2)c1 (stereo not drawn) [Compound 2082a] | + (a “+” indicates that the compound has an MIC value of 16 micrograms/ml or less)
N=C(N)CCCOc1cccc(-c2cc3cn(-c4ccc(CNCCCNC(=N)N)cc4)c(=O)nc3[nH]2)c1 [Compound 1217] | + (a “+” indicates that the compound has an MIC value of 16 micrograms/ml or less)
N=C(N)NCCCNCc1ccc(-n2cc3cc(-c4cc(OCC(F)CN)cc(OC(F)(F)F)c4)[nH]c3nc2=O)cc1 (stereo not drawn) [Compound 1463] | + (a “+” indicates that the compound has an MIC value of 16 micrograms/ml or less)
N=C(N)NCCCN1CC=C(n2cc3cc(-c4ccc(S(=O)(=O)N(CC5COc6ccccc6O5)C5CCNCC5)cc4)[nH]c3nc2=O)CC1 (stereo not drawn) [Compound 984] | + (a “+” indicates that the compound has an MIC value of 16 micrograms/ml or less)
N=C(N)NCCCNCc1ccc(-n2cc3cc(-c4cccc(S(=O)(=O)N(CCc5ccc(F)cc5)C5CCNCC5)c4)[nH]c3nc2=O)cc1 [Compound 1172] | + (a “+” indicates that the compound has an MIC value of 16 micrograms/ml or less)
N=C(N)NCCCNC(=O)c1ccc(-n2cc3cc(-c4ccc(S(=O)(=O)N(Cc5cc(OC(F)(F)F)ccc5F)C5CCNCC5)cc4)[nH]c3nc2=O)cc1 [Compound 1090] | + (a “+” indicates that the compound has an MIC value of 16 micrograms/ml or less)
N=C(N)NCCCNCc1ccc(-n2cc3cc(-c4cccc(OC[C@@H]5CCNC5)c4)[nH]c3nc2=O)cc1 [Compound 1423] | + (a “+” indicates that the compound has an MIC value of 16 micrograms/ml or less)

Same assay, conditions: Escherichia coli, ATCC25922, Escherichia coli strain ATCC25922, microdilution; read-out: E. coli ATCC25922 MIC

MIC [µg/mL] | SMILES
> 16 | CN(C)CCCOc1cccc(-c2cc3cn(-c4ccc(CN)cc4)c(=O)nc3[nH]2)c1 [Compound 1113]
< 16 | N=C(N)NCCCNCc1ccc(-c2cn3cc(-c4ccc(C(=O)N5CCNC(=O)C5)cc4)[nH]c3nc2=O)cc1 [Compound 693]
< 16 | NCc1ccc(-n2cc3cc(-c4ccc(C(=O)NC5CCNCC5)cc4)[nH]c3nc2=O)cc1 [Compound 224]
> 16 | O=c1nc2[nH]c(-c3ccc(S(=O)(=O)NC4CCNCC4)cc3F)cc2cn1-c1ccc(CNCCCF)c(F)c1 [Compound 279]
> 16 | Cc1ccn(CCCN(C2CCNCC2)S(=O)(=O)c2cccc(-c3cc4cn(-c5ccc(C(N)=O)cc5)c(=O)nc4[nH]3)c2)n1 [Compound 1126]
< 16 | N=C(N)NCCCN(CCCN)Cc1ccc(-n2cc3cc(-c4ccc(S(=O)(=O)NC5CCNCC5)cc4F)[nH]c3nc2=O)cc1 [Compound 221]
< 16 | N=C(N)NCCCNCc1ccc(-n2cc3cc(-c4cccc(N5CCNCC5)c4)[nH]c3nc2=O)cc1 [Compound 655]
< 16 | N=C(N)NCCCNCc1ccc(-n2cc3cc(C4CCN(C(=N)N)C4)[nH]c3nc2=O)cc1 (stereo not drawn) [Compound 1230]
> 16 | NCCCNCc1ccc(-n2cc3cc(-c4cc(F)c(F)c(F)c4)[nH]c3nc2=O)cc1 [Compound 306]
> 16 | NCCCN(CCCN)Cc1ccc(-n2cc3cc(-c4ccc(C(=O)Nc5cccnc5)cc4)[nH]c3nc2=O)cc1 [Compound 195]
< 16 | N=C(N)NCCCNCc1ccc(-n2cc3cc(CCN[C@@H]4CCCNC4)[nH]c3nc2=O)cc1 [Compound 815]
> 16 | N=C(N)NCCCNCc1ccc(-c2cn3cc(CCc4cc(F)c(F)cc4F)[nH]c3nc2=O)cc1 [Compound 952]
< 16 | N=C(N)NCCCNCc1ccc(-c2cn3cc(-c4ccc(C(=O)N5CC6CC5CN6)cc4)[nH]c3nc2=O)cc1 (stereo not drawn) [Compound 745]
> 16 | Cn1cc2cc(-c3ccc(F)cc3)[nH]c2nc1=O [Compound 580]
> 16 | COc1cccc(CCCN(C2CCNCC2)S(=O)(=O)c2ccc(-c3cc4cn(-c5ccc(CN)cc5)c(=O)nc4[nH]3)cc2)c1 [Compound 1036]
> 16 | N=C(N)NCCCNCc1ccc(-n2cc3cc(CSc4n[nH]c(N)n4)[nH]c3nc2=O)cc1 [Compound 636]

MIC [µg/mL] | SMILES
> 16 | N=C(N)NCCCNCc1ccc(-c2cn3cc(-c4ccc(Br)cc4)[nH]c3nc2=O)cc1 [Compound 618]
< 16 | N=C(N)NCCCNCc1ccc(-n2cc3cc(-c4cccc(S(=O)(=O)N(CCn5ccnc5)C5CCNCC5)c4)[nH]c3nc2=O)cc1 [Compound 1159]
> 16 | CNCc1ccc(-n2cc3cc(-c4ccc(S(=O)(=O)N(CCCN5Cc6ccccc6C5)C5CCNCC5)cc4)[nH]c3nc2=O)cc1 [Compound 1054]
> 16 | O=c1nc2[nH]c(-c3ccc(S(=O)(=O)NC4CCNCC4)cc3F)cc2cn1-c1ccc(CNCCCCl)cc1 [Compound 250]
> 16 | NCCCNCc1ccc(-c2cn3cc(-c4ccc(S(=O)(=O)N5CCOCC5)cc4)[nH]c3nc2=O)cc1 [Compound 746]
< 16 | NCCCN(CCCN)Cc1ccc(-n2cc3cc(-c4ccc(S(=O)(=O)N(CCN5CCOCC5)C5CCNCC5)cc4)[nH]c3nc2=O)cc1 [Compound 233]
> 16 | O=C1CC[C@@H](COc2cccc(-n3cc4cc(-c5ccc(S(=O)(=O)NC6CCNCC6)cc5)[nH]c4nc3=O)c2)N1 [Compound 1223]
> 16 | NCCCCOc1ccc(-c2cn3cc(-c4ccc(Br)cc4)[nH]c3nc2=O)cc1 [Compound 810]
> 16 | CN(C)CCCOc1cccc(-c2cc3cn(-c4ccc(CNC(=O)CCNC(=N)N)cc4)c(=O)nc3[nH]2)c1 [Compound 1202]
> 16 | NCc1ccc(-n2cc3cc(-c4cccc(S(=O)(=O)N(CCc5cccc([N+](=O)[O-])c5)C5CCNCC5)c4)[nH]c3nc2=O)cc1 [Compound 1184]
> 16 | CCOCCn1cc(CCNO)c2ccc(-n3cc4cc(CCS(=O)(=O)NC5CCNCC5)[nH]c4nc3=O)cc21 [Compound 1209]
< 16 | N=C(N)NCCCNCc1ccc(-n2cc3cc(C4CCCN(C(=N)N)C4)[nH]c3nc2=O)cc1 (stereo not drawn) [Compound 1211]
> 16 | NCCCCCc1ccc(-c2cn3cc(-c4ccc(Br)cc4)[nH]c3nc2=O)cc1 [Compound 886]
> 16 | N=C(N)NCCCNCc1ccc(-c2cn3cc(C(=O)Nc4ccc(F)cc4)[nH]c3nc2=O)cc1 [Compound 965]
< 16 | N=C(N)NCCCNCc1ccc(-n2cc3cc(-c4ccc(S(=O)(=O)C5CCNCC5)cc4)[nH]c3nc2=O)cc1 [Compound 1180]

Reference: patent publication US9193731B2, “Antimicrobial compounds and methods of making and using the same” (Melinta Therapeutics, Inc., priority 2009, dated 2015)
